Measurements: patent US11419852B2, “Beta-lactam compounds or salts thereof for use in long-acting prevention or treatment of a glucose metabolism disorder” (GLYCOLYSIS BIOMED CO., LTD., priority 2019, dated 2022)
Marks after values point to notes of the source that are not given here.

Legend:
Type in all cases: in vivo
[1] = Food and water intake of mice
Procedure: Four to five weeks old db/db mice (BKS.Cg-Dock7^m+/+Lepr^db/JNarl) and m/m mice (BKS.Cg-Dock7^m+/Dock7^m+) were obtained from National Laboratory Animal Center ([…], Taiwan). […] PMI Nutrition International, Brentwood, Mo.) and water ad libitum. […] The mouse body weight (bw) and the amounts of water and food intake were recorded weekly for the entire study period.

db/db mice [2] = assay: Fasting plasma glucose (FPG) measurement; conditions: for Average FPG level: dosing 6 weeks
Procedure: Four to five weeks old db/db mice (BKS.Cg-Dock7^m+/+Lepr^db/JNarl) and m/m mice (BKS.Cg-Dock7^m+/Dock7^m+) were obtained from National Laboratory Animal Center (Nangang, Taipei, Taiwan). These animals were maintained in a facility with a 12-h dark-light cycle at 24±2° C. and 65±5% humidity and were provided food (No. 5001; PMI Nutrition International, Brentwood, Mo.) and water ad libitum. For experiments, the average body weight of m/m mice was approximately 20 g, and that of db/db mice was approximately 30 g.
For each mouse, blood was sampled from the tail vein and measured for FPG levels using a blood glucose meter (OneTouch UltraEasy, Johnson & Johnson, USA) at a predestined time point.

db/db mice [3] = assay: Plasma biochemical parameters (AST, ALT, BUN, Cr, HbA1c)
Procedure: Inflammatory markers such as serum aspartate aminotransferase (AST), alanine aminotransferase (ALT), blood urea nitrogen (BUN), creatinine (Cr), and hemoglobin Alc (HbAlc) were measured using a BMC-Hitachi 717 chemistry auto analyzer.

db/db mice [4] = assay: Oral glucose tolerance test (OGTT); conditions: for Level of OGTT (blood glucose): Ex 2 G4 db/db, DMH i.p. 0.1 mg/g bw/day, dosing 6 weeks
Procedure: Four to five weeks old db/db mice (BKS.Cg-Dock7^m+/+Lepr^db/JNarl) and m/m mice (BKS.Cg-Dock7^m+/Dock7^m+) were obtained from National Laboratory Animal Center ([…], Taiwan). […] PMI Nutrition International, Brentwood, Mo.) and water ad libitum. […] Blood was sampled from the tail vein, and FPG levels were measured and recorded as the basic blood glucose levels. […] The total area under the curve (AUC) in OGTT was plotted and calculated by the Area Under Coordinates Program (StatsToDo Server, Department of Obstetrics and Gynecology, Chinese University of Hong Kong).

[5] = Ex 1: db/db mice, ertapenem i.p. 0.41 mg/g bw/day, 3 weeks
[6] = Ex 3: db/db mice, daily dosing 3 weeks at doses of Table 10
[7] = Ex 1: db/db mice, ertapenem i.p. 0.41 mg/g bw/day, week 3
[8] = Ex 3, after the treatments had been stopped for 6 weeks
[9] = Ex 3: db/db mice, daily dosing 3 weeks at doses of Table 10, week 9

With `C[C@@H](O)[C@H]1C(=O)N2C(C(=O)O)=C(S[C@@H]3CN[C@H](C(=O)Nc4cccc(C(=O)O)c4)C3)[C@H](C)[C@H]12` [DMH, ertapenem] the “Food and water intake vs DB group” value ([1]; Ex 1: db/db mice, 0.41 mg/g bw/day i.p., entire study period, P<0.05) was “reduced”, the Diet intake [1, 5] was 5.0 ± 0.9 g/mice/day and the Water intake [1, 5] was 6.8 ± 1.6 mL/mice/day. The “Food intake in db/db mice” value ([1]; Ex 3, P<0.05) was “significantly reduced”, the “Water intake in db/db mice” value ([1]; Ex 3, P<0.05) was “significantly reduced” and the Diet intake [1, 6] was 5.2 ± 1^b g/mice/day. The Water intake [1, 6] was 8.4 ± 1^c mL/mice/day, the “Duration of blood-glucose-lowering effect after treatment was stopped” value (db/db mice [2]; Ex 2, db/db mice) was “at least 6 weeks” and the “Lowering blood glucose levels (FPG) in db/db mice” value (db/db mice [2]; Ex 2, week 3, 0.1 mg/g bw and 0.4 mg/g bw vs metformin 0.3 mg/g bw) was “as effective as metformin”. For the same molecule, the “Average FPG level” value (db/db mice [2]; Ex 2 G4 db/db, DMH i.p. 0.1 mg/g bw/day, week 0) was 139 ± 21^b, the “Average FPG level” value (db/db mice [2]; Ex 2 G4 db/db, DMH i.p. 0.1 mg/g bw/day, week 3) was 134 ± 21^b and the “Average FPG level” value (db/db mice [2]; Ex 2 G4 db/db, DMH i.p. 0.1 mg/g bw/day, week 6) was 219 ± 36^b. The “Average FPG level” value (db/db mice [2]; Ex 2 G4 db/db, DMH i.p. 0.1 mg/g bw/day, week 9) was 217 ± 37^bc, the “Average FPG level” value (db/db mice [2]; Ex 2 G4 db/db, DMH i.p. 0.1 mg/g bw/day, week 12) was 154 ± 30^ab and the “Average FPG level” value (db/db mice [2]; Ex 2 G4 db/db, DMH i.p. 0.1 mg/g bw/day, week 16) was 126 ± 43^ab. The “Average FPG level” value (db/db mice [2]; Ex 2 G4 db/db, DMH i.p. 0.1 mg/g bw/day, week 18) was 263 ± 58^b, the “Average FPG level” value (db/db mice [2]; Ex 2 G5 db/db, DMH i.p. 0.2 mg/g bw/day, week 0) was 142 ± 20^b and the “Average FPG level” value (db/db mice [2]; Ex 2 G5 db/db, DMH i.p. 0.2 mg/g bw/day, week 3) was 158 ± 25^bc. For the same molecule, the “Average FPG level” value (db/db mice [2]; Ex 2 G5 db/db, DMH i.p. 0.2 mg/g bw/day, week 6) was 166 ± 21^b, the “Average FPG level” value (db/db mice [2]; Ex 2 G5 db/db, DMH i.p. 0.2 mg/g bw/day, week 9) was 212 ± 30^bc and the “Average FPG level” value (db/db mice [2]; Ex 2 G5 db/db, DMH i.p. 0.2 mg/g bw/day, week 12) was 191 ± 42^bc. For the same molecule, the “Average FPG level” value (db/db mice [2]; Ex 2 G5 db/db, DMH i.p. 0.2 mg/g bw/day, week 16) was 154 ± 56^ab, the “Average FPG level” value (db/db mice [2]; Ex 2 G5 db/db, DMH i.p. 0.2 mg/g bw/day, week 18) was 308 ± 51^b and the “Average FPG level” value (db/db mice [2]; Ex 2 G6 db/db, DMH i.p. 0.4 mg/g bw/day, week 0) was 141 ± 23^b. For the same molecule, the “Average FPG level” value (db/db mice [2]; Ex 2 G6 db/db, DMH i.p. 0.4 mg/g bw/day, week 3) was 121 ± 23^ab, the “Average FPG level” value (db/db mice [2]; Ex 2 G6 db/db, DMH i.p. 0.4 mg/g bw/day, week 6) was 175 ± 30^b and the “Average FPG level” value (db/db mice [2]; Ex 2 G6 db/db, DMH i.p. 0.4 mg/g bw/day, week 9) was 172 ± 27^b. For the same molecule, the “Average FPG level” value (db/db mice [2]; Ex 2 G6 db/db, DMH i.p. 0.4 mg/g bw/day, week 12) was 166 ± 26^ac, the “Average FPG level” value (db/db mice [2]; Ex 2 G6 db/db, DMH i.p. 0.4 mg/g bw/day, week 16) was 108 ± 22^ab and the “Average FPG level” value (db/db mice [2]; Ex 2 G6 db/db, DMH i.p. 0.4 mg/g bw/day, week 18) was 266 ± 35^b. For the same molecule, the “Levels of AST, ALT, BUN, and HbA1c in the diabetes mice” value (db/db mice [3]; Ex 1, week 3) was “significantly reduced”, the ALT (db/db mice [3]; [7]) was 34 ± 6 U/L and the AST (db/db mice [3]; [7]) was 61 ± 7 U/L. For the same molecule, the BUN (db/db mice [3]; [7]) was 27 ± 2 mg/dL, the Creatinine (db/db mice [3]; [7]) was 0.57 ± 0.02 mg/dL and the HbA1c (db/db mice [3]; [7]) was 6.1 ± 0.8 %. For the same molecule, the “Level of ALT” value (db/db mice [3]; [8]) was “reduce”, the “Level of AST” value (db/db mice [3]; [8]) was “reduce” and the “Level of HbA1c” value (db/db mice [3]; [8]) was “reduce”. For the same molecule, the ALT (db/db mice [3]; [9]) was 79 ± 8^bc U/L, the AST (db/db mice [3]; [9]) was 127 ± 13^ad U/L and the BUN (db/db mice [3]; [9]) was 44 + 2^d mg/dL. For the same molecule, the Creatinine (db/db mice [3]; [9]) was 0.467 ± 0.01^bd mg/dL, the HbA1c (db/db mice [3]; [9]) was 5.8 ± 0.3^d % and the “OGTT AUC vs untreated mice (DB group)” value (db/db mice [4]; Ex 1, week 3, P<0.05) was “significantly smaller”. The “Glucose concentration in OGTT vs DB group” value (db/db mice [4]; Ex 1, week 3, time points of 90 min and 120 min (FIG. 1)) was “significantly lower”, the “OGTT AUC” value (db/db mice [4]; [5]) was 1298 ± 186 and the “OGTT AUCs vs metformin-treated (G3) and untreated db/db mice (G2)” value (db/db mice [4]; Ex 2, G4 and G5, weeks 6, 12, and 16, P<0.05) was “significantly smaller”. For the same molecule, the “Oral glucose tolerance of db/db mice after stop” value (db/db mice [4]; Ex 2, after the treatment had been stopped for 10 weeks) was “effectively increased”, the “Oral glucose tolerance (OGT) of db/db mice” value (db/db mice [4]; Ex 2, most time points (ertapenem: weeks 6 and 12)) was “significantly increased” and the Level of OGTT (blood glucose) (db/db mice [4]; Week 6, 0 min) was 219 ± 36 mg/dL. The “Level of OGTT (blood glucose)” value (db/db mice [4]; Week 6, 15 min) was 866 ± 38^bc, the Level of OGTT (blood glucose) (db/db mice [4]; Week 6, 30 min) was 671 ± 62 mg/dL and the Level of OGTT (blood glucose) (db/db mice [4]; Week 6, 60 min) was 486 ± 57 mg/dL. The “Level of OGTT (blood glucose)” value (db/db mice [4]; Week 6, 120 min) was 286 ± 44^bc, the “Level of OGTT (blood glucose)” value (db/db mice [4]; Week 12, 0 min) was 154 ± 30^ab and the Level of OGTT (blood glucose) (db/db mice [4]; Week 12, 15 min) was 866 ± 36 mg/dL. For the same molecule, the “Level of OGTT (blood glucose)” value (db/db mice [4]; Week 12, 30 min) was 794 ± 60^bc, the Level of OGTT (blood glucose) (db/db mice [4]; Week 12, 60 min) was 503 ± 67 mg/dL and the Level of OGTT (blood glucose) (db/db mice [4]; Week 12, 120 min) was 372 ± 83 mg/dL. The “Level of OGTT (blood glucose)” value (db/db mice [4]; Week 16, 0 min) was 126 ± 43^ab, the Level of OGTT (blood glucose) (db/db mice [4]; Week 16, 15 min) was 575 ± 44 mg/dL and the “Level of OGTT (blood glucose)” value (db/db mice [4]; Week 16, 30 min) was 609 ± 39^c. The “Level of OGTT (blood glucose)” value (db/db mice [4]; Week 16, 60 min) was 506 ± 52^c.
